Source: the supplement of paper PMC11451515

Test system: P12-Ichikawa
Assay: cell viability relative to DMSO control; higher = less cytotoxic
Settings: 48 h
Method in brief: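 Viability, reported as a per-plate percentage of DMSO wells with cell-free wells as background, came from CellTiter-Glo One luminescence. Reading took place after 48 h at 37°C. Before that, NOMO1 or SEM (500 cells/well) or P12-Ichikawa (1000 cells/well) leukemia cells, adapted for at least four passages in each medium, were seeded in 1536-well plates (5 μl) and pin-dosed with library compounds in DMSO, 47 μM to 0.79 nM over 11 threefold points.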

CC[S+](=O)([O-])Nc1ccc2c(c1)/C(=C(/Nc1ccc(CN3CCCCC3)cc1)c1ccccc1)C(=O)N2
cell viability [%]
Settings	HPLM + 10% dialyzed FBS	RPMI 5 mM glucose + 10% FBS	RPMI 5 mM glucose + 10% dialyzed FBS
0.000781 µM	106	127	123
0.00234 µM	114	116	117
0.00702 µM	115	120	121
0.0211 µM	109	119	118
0.0632 µM	111	114	121
0.19 µM	12.9	14.3	22.6
0.569 µM	11.6	17.4	25.8
1.71 µM	18.7	30.7	47.3
5.12 µM	27.1	35.3	52
15.4 µM	54.3	51.4	59.8
46.1 µM	32.2	21.4	18.8
